Reference: patent US5643871A, “Antitumor antibiotics” (Bristol-Meyers Squibb Company, priority 1993, dated 1997)
Starred links: 1 amine or outer side, 2 acyl side, 3 side chain; linkers in the order of their positions; H or OH if unused. Positions of bridges follow the written chain, without caps; N, C: chain ends. Non-standard residues stand in square brackets, D forms with d. Residues, ends and D or L forms follow the SMILES beside them. Chains are numbered I, II in the order given. ξ: configuration not given here. *: point of attachment. X2 = CC(C)C(=O)OC1CC=NN([*:1])C1C(=O)[*:2]; ξNMeVal(3-OH) = CNC(C(=O)O)C(C)(C)O; X1 = COc1ccc2nc(C(=O)*)cnc2c1; Sar = CNCC(=O)O

How the values were obtained:
P388 murine leukemia = assay: In vivo antitumor activity against P388 leukemia (ip tumor implant / ip drug); details: once daily for five days; for % T/C: >=125 considered significant; for Median Survival Time: CDF1 female mice, ip P388;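 on all read-outs here: dosing started the day after tumor implantation, and %T/C expresses median survival of treated mice relative to the saline-treated control group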
Protocol: CDF1 female mice were implanted intraperitoneally with a tumor inoculum of 10^6 ascites cells of P388, and treated with various doses of test compounds. The compounds were administered intraperitoneally once daily for five consecutive days starting on the day after tumor implantation. The ratio of median survival time for a treated group and that for the saline-treated control group was determined and expressed as %T/C.

[1] = test system: Madison 109 (M109) lung carcinoma; assay: Madison 109 lung carcinoma, ip/ip model; type: in vivo, mice; details: 0.05 mg/kg/dose ip on days 2, 6 and 10; ip tumor implantation
[2] = test system: Madison 109 (M109) lung carcinoma; details: sc tumor implantation, intravenous drug administration on days 2, 6 and 10
Protocol: 299- (1981). Briefly, CDF1 female mice were implanted intraperitoneally (ip) with 0.5 ml or subcutaneously (sc) with 0.1 ml of a 2% brei (w/v) of M109 lung carcinoma. The test compound was administered intraperitoneally (in ip tumor implant groups) or intravenously (in sc tumor implant groups) at various dosage levels to groups of mice on days 2, 6 and 10 after tumor implantation. The median survival time and %T/C values were determined as described above.

P388 leukemia = assay: iv/iv P388 leukemia protocol; type: in vivo, mice; details: 0.010 mg/kg/dose iv, once daily for five days; leukemic cells implanted iv

SMILES	Body Weight Change on Day 4 (P388 murine leukemia; dose 0.02 mg/kg/day ip)	% T/C (P388 murine leukemia; dose 0.02 mg/kg/day ip) [%]	Median Survival Time (P388 murine leukemia; dose 0.02 mg/kg/day ip)	Body Weight Change on Day 4 (P388 murine leukemia; dose 0.05 mg/kg/day ip)	% T/C (P388 murine leukemia; dose 0.05 mg/kg/day ip) [%]	Median Survival Time (P388 murine leukemia; dose 0.05 mg/kg/day ip)	Body Weight Change on Day 4 (P388 murine leukemia; dose 0.2 mg/kg/day ip)	% T/C (P388 murine leukemia; dose 0.2 mg/kg/day ip)	Median Survival Time (P388 murine leukemia; dose 0.2 mg/kg/day ip)	Body Weight Change on Day 4 (P388 murine leukemia; dose 0.7 mg/kg/day ip)	% T/C (P388 murine leukemia; dose 0.7 mg/kg/day ip)	Median Survival Time (P388 murine leukemia; dose 0.7 mg/kg/day ip)	% T/C (P388 murine leukemia; dose 2.0 mg/kg/day ip)	Median Survival Time (P388 murine leukemia; dose 2.0 mg/kg/day ip)	also measured
CCC(=O)OC1CC=NN2C(=O)C(NC(=O)c3cnc4cc(OC)ccc4n3)COC(=O)C(C(C)(C)O)N(C)C(=O)CN(C)C(=O)CNC(=O)C3C(OC(=O)CC)CC=NN3C(=O)C(NC(=O)c3cnc4cc(OC)ccc4n3)COC(=O)C(C(C)(C)O)N(C)C(=O)CN(C)C(=O)CNC(=O)C12 (stereo not drawn) [BMS-181060]															Body Weight Change on Day 4 (P388 murine leukemia; dose 0.003 mg/kg/day ip): 1.0; % T/C (P388 murine leukemia; dose 0.003 mg/kg/day ip): 105%; Median Survival Time (P388 murine leukemia; dose 0.003 mg/kg/day ip): 11.5; Body Weight Change on Day 4 (P388 murine leukemia; dose 0.01 mg/kg/day ip): 0.1; % T/C (P388 murine leukemia; dose 0.01 mg/kg/day ip): 127%; Median Survival Time (P388 murine leukemia; dose 0.01 mg/kg/day ip): 14.0; Body Weight Change on Day 4 (P388 murine leukemia; dose 0.03 mg/kg/day ip): 0.0; % T/C (P388 murine leukemia; dose 0.03 mg/kg/day ip): 127%; Median Survival Time (P388 murine leukemia; dose 0.03 mg/kg/day ip): 14.0; Body Weight Change on Day 4 (P388 murine leukemia; dose 0.09 mg/kg/day ip): -0.9; % T/C (P388 murine leukemia; dose 0.09 mg/kg/day ip): 91%; Median Survival Time (P388 murine leukemia; dose 0.09 mg/kg/day ip): 10.0; Body Weight Change on Day 4 (P388 murine leukemia; dose 0.27 mg/kg/day ip): 0.7; % T/C (P388 murine leukemia; dose 0.27 mg/kg/day ip): Tox; Median Survival Time (P388 murine leukemia; dose 0.27 mg/kg/day ip): Tox; % T/C (P388 murine leukemia; dose 0.81 mg/kg/day ip): Tox; Median Survival Time (P388 murine leukemia; dose 0.81 mg/kg/day ip): Tox
COc1ccc2nc(C(=O)NC3COC(=O)C(C(C)(C)O)N(C)C(=O)CN(C)C(=O)CNC(=O)C4C(OC(=O)C(C)C)CC=NN4C(=O)C(NC(=O)c4cnc5cc(OC)ccc5n4)COC(=O)C(C(C)(C)O)N(C)C(=O)CN(C)C(=O)CNC(=O)C4C(OC(=O)C(C)C)CC=NN4C3=O)cnc2c1 (stereo not drawn) [BMY-45012] (I: X1-S[X2]G[Sar][ξNMeVal(3-OH)] / II: X1-S[X2]G[Sar][ξNMeVal(3-OH)]; ester I:1-II:C, I:C-II:1; configuration not given here)	-0.4	115	11.5	0.3	145	14.5	-0.7	145%	14.5	-0.1	95%	9.5			maximum %T/C [1]: 131%; antitumor activity (%T/C) [2]: not significantly active; maximum %T/C (P388 leukemia): 113%
COc1ccc2nc(C(=O)NC3COC(=O)C(C(C)(C)O)N(C)C(=O)CN(C)C(=O)CNC(=O)C4C(OC(=O)C(C)C)CC=NN4C(=O)C(NC(=O)c4cnc5cc(OC)ccc5n4)COC(=O)C(C(C)(C)O)N(C)C(=O)CN(C)C(=O)CNC(=O)C4C(OC(=O)CC(C)C)CC=NN4C3=O)cnc2c1 (stereo not drawn) [BMY-46404]	-0.1	130	13.0	0.2	140	14.0	-0.0	135%	13.5	-0.3	165%	16.5	80%	8.5	Body Weight Change on Day 4 (P388 murine leukemia; dose 2.0 mg/kg/day ip): -0.7
COc1ccc2nc(C(=O)NC3COC(=O)C(C(C)(C)O)N(C)C(=O)CN(C)C(=O)CNC(=O)C4C(OC(=O)CC(C)C)CC=NN4C(=O)C(NC(=O)c4cnc5cc(OC)ccc5n4)COC(=O)C(C(C)(C)O)N(C)C(=O)CN(C)C(=O)CNC(=O)C4C(OC(=O)CC(C)C)CC=NN4C3=O)cnc2c1 (stereo not drawn) [BMY-46405]	-0.8	140	14.0	-0.8	175	17.5	-3.4	Tox	Tox		Tox	Tox	Tox	Tox	
CCC(=O)OC1CC=NN2C(=O)C(NC(=O)c3cnc4cc(OC)ccc4n3)COC(=O)C(C(C)(C)O)N(C)C(=O)CN(C)C(=O)CNC(=O)C3C(OC(C)=O)CC=NN3C(=O)C(NC(=O)c3cnc4cc(OC)ccc4n3)COC(=O)C(C(C)(C)O)N(C)C(=O)CN(C)C(=O)CNC(=O)C12 (stereo not drawn) [BMY-46407]	1.0	120	12.0	-0.0	135	13.5	-0.01	Tox	Tox		Tox	Tox	Tox	Tox	
CCC(=O)OC1CC=NN2C(=O)C(NC(=O)c3cnc4cc(OC)ccc4n3)COC(=O)C(C(C)(C)O)N(C)C(=O)CN(C)C(=O)CNC(=O)C3C(OC(=O)C(C)C)CC=NN3C(=O)C(NC(=O)c3cnc4cc(OC)ccc4n3)COC(=O)C(C(C)(C)O)N(C)C(=O)CN(C)C(=O)CNC(=O)C12 (stereo not drawn) [BMY-46408]	-0.1	150	15.0	-0.4	155	15.5	0.2	155%	15.5	0.3	85%	8.5	Tox	Tox	
COc1ccc2nc(C(=O)NC3COC(=O)C(C(C)(C)O)N(C)C(=O)CN(C)C(=O)CNC(=O)C4C(OC(=O)C(C)C)CC=NN4C(=O)C(NC(=O)c4cnc5cc(OC)ccc5n4)COC(=O)C(C(C)(C)O)N(C)C(=O)CN(C)C(=O)CNC(=O)C4C(OC(C)=O)CC=NN4C3=O)cnc2c1 (stereo not drawn) [BMY-46572]															Body Weight Change on Day 4 (P388 murine leukemia; dose 0.003 mg/kg/day ip): 0.4; % T/C (P388 murine leukemia; dose 0.003 mg/kg/day ip): 110%; Median Survival Time (P388 murine leukemia; dose 0.003 mg/kg/day ip): 11.0; Body Weight Change on Day 4 (P388 murine leukemia; dose 0.01 mg/kg/day ip): 0.5; % T/C (P388 murine leukemia; dose 0.01 mg/kg/day ip): 125%; Median Survival Time (P388 murine leukemia; dose 0.01 mg/kg/day ip): 12.5; Body Weight Change on Day 4 (P388 murine leukemia; dose 0.03 mg/kg/day ip): -0.0; % T/C (P388 murine leukemia; dose 0.03 mg/kg/day ip): 140%; Median Survival Time (P388 murine leukemia; dose 0.03 mg/kg/day ip): 14.0
